Legend:
[1] = test system: 24-hydroxylase gene reporter plasmid in rat osteosarcoma cells; test: 24-hydroxylase (24-OHase) transcription, luciferase reporter; conditions: for EC50: Rattus norvegicus, read-out: 24OHase transcription ED50; for 24OHase transcription Ratio: average ratio of the 1α,25-(OH)2D3 ED50 to the ED50 for the analogue
Method: (§1) The experiments were carried out in duplicate on two different occasions. […] The binding ratio is the average ratio of the 1□,25-(OH)2D3 Ki to the Ki for the analogue. ^bInduction of differentiation of HL-60 promyelocytes to monocytes by 1□,25-(OH)2D3 (1) and the synthesized vitamin D analogues. Differentiation state was determined by measuring the percentage of cells reducing nitro blue tetrazolium (NBT). The experiment was repeated in duplicate two times. […] The differentiation activity ratio is the average ratio of the 1□,25-(OH)2D3 ED50 to the ED50 for the analogue. ^cTranscriptional assay in rat osteosarcoma cells stably transfected with a 24-hydroxylase gene reporter plasmid. […] The luciferase activity ratio is the average ratio of the 1□,25-(OH)2D3 ED50 to the ED50 for the analogue.

[2] = test system: HL-60 promyelocytes; test: HL-60 differentiation (NBT reduction); conditions: for HL-60 differentiation ratio: average ratio of the 1α,25-(OH)2D3 ED50 to the ED50 for the analogue; for HL-60 differentiation activity, in words: compared with 1α,25-(OH)2D3
Method: as §1

[3] = target: T1, full-length recombinant rat vitamin D receptor (Rattus norvegicus, UniProt P13053); test: Competitive VDR binding; conditions: for VDR binding ratio: average ratio of the 1α,25-(OH)2D3 Ki to the Ki for the analogue
T1 sequence (P13053 1-423): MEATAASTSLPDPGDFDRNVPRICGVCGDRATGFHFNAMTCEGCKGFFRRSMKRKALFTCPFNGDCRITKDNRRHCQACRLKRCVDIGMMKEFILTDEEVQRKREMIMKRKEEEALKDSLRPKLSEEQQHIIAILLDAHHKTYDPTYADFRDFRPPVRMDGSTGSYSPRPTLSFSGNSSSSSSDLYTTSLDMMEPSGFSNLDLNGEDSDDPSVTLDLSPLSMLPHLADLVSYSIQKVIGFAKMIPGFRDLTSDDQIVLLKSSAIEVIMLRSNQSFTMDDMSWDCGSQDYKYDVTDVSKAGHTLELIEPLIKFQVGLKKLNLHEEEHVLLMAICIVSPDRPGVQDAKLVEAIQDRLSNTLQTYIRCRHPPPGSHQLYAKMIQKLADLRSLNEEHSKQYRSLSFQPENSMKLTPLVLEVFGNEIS
Method: as §1

[4] = Bone calcium mobilization in vivo (serum calcium); design: species or system Sprague-Dawley rats; conditions: rats on 0.02% Ca diet, four consecutive intraperitoneal doses, serum calcium 24 hours after the last dose
Excerpt: 2. In vivo Studies. Bone calcium mobilization and intestinal calcium transport.
Male, weanling Sprague-Dawley rats were purchased from Harlan (Indianapolis, Ind.). The animals were group housed and placed on Diet 11 (0.47% Ca)+AEK oil for one week followed by Diet 11 (0.02% Ca)+AEK oil for 3 weeks. The rats were then switched to a diet containing 0.47% Ca^26 for one week followed by two weeks on a diet containing 0.02% Ca. Dose administration began during the last week on 0.02% Ca diet. Four consecutive intraperitoneal doses were given approximately 24 hours apart. Twenty-four hours after the last dose, blood was collected from the severed neck and the concentration of serum calcium determined as a measure of bone calcium mobilization. The first 10 cm of the intestine was also collected for the intestinal calcium transport analysis using the everted gut sac method.^25

[5] = background statement in the discussion, compared with 1,25-(OH)2D3; cited from earlier work
[6] = background statement in the discussion; cited from earlier work

Row | SMILES | EC50 [1] [pM] | HL-60 differentiation ratio [2] | HL-60 differentiation activity, in words [2] | melting point [°C] | Ki [3] [pM] | VDR binding ratio [3] | bone calcium mobilization activity, in words [4] | 24OHase transcription Ratio [1] | VDR binding, in words ([3]; compared with 1α,25-(OH)2D3) | bone calcium mobilization activity, in words ([4]; listed as 24,24-difluoro substituted 19-nor-20S-2-methylene-1α,25-(OH)2D3) | 24-OHase (CYP24A1) transcriptional activity, in words ([1]; compared with 1α,25-(OH)2D3 or 2MD) | intestinal calcium absorption of 2MD, in words [5] | bone calcium mobilizing activity of 2MD, in words [6]
1 | C=C1/C(=C\C=C2/CCC[C@@]3(C)C2CCC3[C@H](C)CCCC(C)(C)O)C[C@@H](O)C[C@@H]1O (stereo partly drawn) [Compound 1, 1α,25-dihydroxyvitamin D3, reference compound] | 200 | – | – | – | – | – | – | – | – | – | – | – | –
2 | C=C1[C@H](O)CC(=C/C=C2\CCC[C@@]3(C)C2CCC3[C@H](C)CCC(F)(F)C(C)(C)O)C[C@H]1O (stereo partly drawn) [Compound 3, (20R)-1α,25-Dihydroxy-24,24-difluoro-2-methylene-19-norvitamin D3] | 10 | 30 | high potency | 163 to 164 | 40 | 1 | not as potent in vivo as analogues 4 and 6 | 20 | – | – | – | – | –
3 | C[C@H](CCC(F)(F)C(C)(C)O)C1CCC2/C(=C/C=C3C[C@@H](O)C[C@H](O)C3)CCC[C@@]21C (stereo partly drawn) [Compound 5, (20R)-1α,25-Dihydroxy-24,24-difluoro-19-norvitamin D3] | 40 | 60 | high potency | 182 to 183 | 20 | 2 | not as potent in vivo as analogues 4 and 6 | 5 | slightly more effective than 1α,25-(OH)2D3 | – | – | – | –
4 | C=C1[C@H](O)CC(=C/C=C2\CCC[C@@]3(C)C2CCC3[C@@H](C)CCC(F)(F)C(C)(C)O)C[C@H]1O (stereo partly drawn) [Compound 4, (20S)-1α,25-Dihydroxy-24,24-difluoro-2-methylene-19-norvitamin D3] | 20 | 100 | – | – | 30 | 1.3 | highest bone mobilization activity | 10 | – | bone calcium mobilization activity rivaling 2-methylene-19-nor-(20S)-1,25-dihydroxyvitamin D3 or 2MD | almost as active as 2MD | – | –
5 | C=C1[C@H](O)CC(=C/C=C2\CCC[C@@]3(C)C2CCC3[C@@H](C)CCCC(C)(C)O)C[C@H]1O (stereo partly drawn) [Compound 2, 2-methylene-(20S)-1α,25-dihydroxy-19-nor vitamin D3, reference compound] | 7 | 150 | – | – | 30 | 1.3 | – | 29 | – | – | – | not increased above that found with 1,25-(OH)2D3 | greatly increased bone calcium mobilizing activity
6 | C[C@@H](CCC(F)(F)C(C)(C)O)C1CCC2/C(=C/C=C3C[C@@H](O)C[C@H](O)C3)CCC[C@@]21C (stereo partly drawn) [Compound 6, (20S)-1α,25-Dihydroxy-24,24-difluoro-19-norvitamin D3] | 40 | 50 | – | – | 30 | 1.3 | highest bone mobilization activity | 5 | – | – | – | – | –
